Results on 7 compounds are retold here after patent US9867811B2, “Method of treating atherosclerosis in high triglyceride subjects” (NOVARTIS AG, priority 2011, dated 2018).

The structures appear in SMILES notation. Where two headings read alike, the source gives them in different places.

Assay [1] has as its target T1, CETP (Homo sapiens, UniProt P11597).
T1 construct: Human serum samples were obtained from the Novartis Institutes for BioMedical Research donor program; tissue Novartis donor program; Bioreclamation (Westbury, N.Y.); Uniglobe (Reseda, Calif.); host or cells: pooled human donor serum
T1 sequence (P11597 18-493): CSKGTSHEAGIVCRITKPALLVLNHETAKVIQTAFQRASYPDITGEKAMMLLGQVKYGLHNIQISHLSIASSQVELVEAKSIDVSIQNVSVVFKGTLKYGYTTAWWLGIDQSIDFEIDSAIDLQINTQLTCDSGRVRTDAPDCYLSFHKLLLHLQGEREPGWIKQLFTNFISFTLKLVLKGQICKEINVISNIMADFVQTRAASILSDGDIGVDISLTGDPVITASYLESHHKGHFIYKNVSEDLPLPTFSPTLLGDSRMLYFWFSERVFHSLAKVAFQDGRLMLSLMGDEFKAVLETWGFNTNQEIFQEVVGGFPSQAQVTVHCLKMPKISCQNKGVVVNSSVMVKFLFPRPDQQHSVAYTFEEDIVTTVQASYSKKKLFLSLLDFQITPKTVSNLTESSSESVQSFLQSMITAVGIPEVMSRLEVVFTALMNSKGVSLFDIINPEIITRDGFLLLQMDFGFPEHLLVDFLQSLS
As to the kind of experiment: In vitro CETP activity assay in human plasma (serum pools of differing triglyceride level). The assay is classed as biochemical. The following applies: human serum pool. The protocol:
Pro-apoA-1 containing microemulsion as a donor particle was prepared following previous report (J. Biol. Chem., 280:14918-22). Glyceryl trioleate (500 ug, Sigma-Aldrich, Cat. No. T7140), 3-sn-phosphatidylcholine (4680 ug, Sigma, Cat. No. P2772), and cholesteryl BODIPY FL 012 (2 mg, Invitrogen, CA, Cat. No. C-3927MP) were dissolved in 1.5 mL of chloroform. The solution was evaporated, and residual solvent was removed under vacuum for more than 1 hr at room temperature. The dried lipid mixture was dissolved in 7 ml of the assay buffer (50 mM Tris-HCl (pH 7.4) containing 150 mM NaCl and 2 mM EDTA) and sonicated in water bath for 1 hr. The solution was split into two tubes of 3.5 ml each. Each tube was sonicated at 50° C. with a microtip (MICROSON™ ULTRASONIC CELL DISRUPTOR, Misonix, Farmingdale, N.Y.) at output power 006 for 10 min (every other 25 seconds). The solution was cooled to 40° C. and 400 ug of pro-apoA-1 was added to each tube (total volume of 4 mL). Then, the solution was sonicated at output power 004 for 20 min (every other 30 seconds). Final Concentration: Glyceryl Tiroleate: 62.5 ug/ml, PC: 585 ug/ml, Bodipy CE: 250 ug/ml, Pro-apoA-1: 100 ug/ml. Centrifuge solution at 5200×g for 5 minutes and store the supernatant at 4′C.
Human serum samples were obtained from the Novartis Institutes for BioMedical Research donor program (normal triglyceride samples) or purchased from Bioreclamation (Westbury, N.Y.) or Uniglobe (Reseda, Calif.). General requirements for human serum donors included: male gender, 20-55 years of age, not currently on a lipid altering medication, non-fasting at time of blood collection, and a total cholesterol level between 200-300 mg/dL. Donor samples were selected primarily on the basis of serum triglyceride level, using the following classifications: normal triglycerides (<150 mg/dL); high triglycerides (300-500 mg/dL); and very high triglycerides (750-1200 mg/dL). A total of 4 individual serum samples from each classification were used in these experiments. For each of the 3 triglyceride classifications, two serum sample pools were prepared. The mean plasma triglyceride concentrations (mg/dL) for the pools were: Normal: 101.35; High: 347.5; Very high 1, 868.45; Very high 2, 1269.35.
Donor solution is prepared by a dilution of donor microemulsion with assay buffer (1.7 ul donor+8.3 ul Buffer). Human serum (25 μL), assay buffer (14 μL) and 50× test compound dissolved in 100% dimethylsulfoxide (1 μL) are added to each well of 384 well black, clear-bottom plate (NUNC. Thermo Fisher #242764). The reaction is started by the addition of donor solution (10 μL) into each well. Fluorescence intensities are measured every 10 min at 37° C. with excitation wave length of 485 nm and emission wavelength of 515 nm over an 80 minute period, using a SpectraMax M5 from Molecular Devices (Sunnyvale, Calif.). The CETP activity (RFU/min) is defined as the change of fluorescence intensity from 40 to 70 min. Percent CETP inhibition is calculated as follows: ((100% Act−Wellcmpnd)/100% Act))*100. IC50 values were calculated with GraphPad Prism 5 software.

For assay [2], the system named is CETP. As to the kind of experiment: Ex vivo CETP activity in plasma of hamsters (saline or Triton WR-1339 treated). The following applies: hamster. The protocol:
Nine- to ten-week-old, male golden Syrian hamsters were purchased from Japan SLC Inc. (Shizuoka, Japan). Animals underwent a more than 1-week acclimation period under the following conditions: 8:00/20:00 light/dark cycle, room temperature 23±2° C. […] During this time, animals received filtered (0.5 μm) water and a standard chow diet ad libitum.
Whole blood samples were collected using a heparin-washed syringe (Heparin sodium injection “Ajinomoto”; Ajinomoto, Tokyo, Japan) from the abdominal vein by venipuncture under isoflurane (Abbott Japan Co. Ltd.) inhalant anesthesia. After centrifugation at 15,000 rpm for 10 min at 4° C., heparinized plasma was prepared and stored at −80° C. until use.
CETP activity (RFU/min) was defined as the change in fluorescence intensity from 30 to 90 min.
The effect of an acute increase of plasma triglycerides in vivo (acute increase in triglyceride-rich particles) on the ability of Torcetrapib to alter plasma CETP activity, triglyceride and total cholesterol levels was investigated. Torcetrapib at doses of 3, 10 or 30 mg/kg or vehicle was administered once by gavage to hamsters fed a standard chow diet.
Compound or vehicle was administered once by gavage to hamsters fed a standard chow diet.

Assay [3] relates to CETP. The assay is described as follows: Ex vivo plasma CETP activity assay with exogenously added compound (maximum inhibition). Type of assay: biochemical. The following applies: 10 μM, hamster plasma (80% plasma). The protocol:
Plasma CETP activity ex vivo was determined as followed: 50 μL of hamster plasma (final 80% plasma) was mixed with 10 μL of donor solution diluted with assay buffer composed of 50 mM Tris-HCl (pH7.4) containing 150 mM NaCl and 2 mM EDTA in a 96-well half area black flat bottom plate (Cat. No. 3686, Corning, Corning, N.Y.). Fluorescence intensity was measured every 15 min at an excitation wave length of 485 nm and an emission wavelength of 535 nm for 120 min at 37° C. using ARVO SX+L (PerkinElmer, Wellesley, Mass.). CETP activity (RFU/min) was defined as the change in fluorescence intensity from 30 to 90 min.

The mark [4] stands for this setting: TG = 101.35 mg/dL (normal), read-out: CETP IC50 (nM) TG = 101.35 mg/dL.
[5] abbreviates: TG = 374.5 mg/dL (high), read-out: CETP IC50 (nM) TG = 374.5 mg/dL.
Where [6] appears, read: TG = 868.45 mg/dL (very high 1), read-out: CETP IC50 (nM) TG = 868.45 mg/dL.
Setting [7] is: TG = 1269.35 mg/dL (very high 2), read-out: CETP IC50 (nM) TG = 1269.35 mg/dL.

Take `CCN(C[C@H]1CC[C@H](CC(=O)O)CC1)c1cc(C)c(C(F)(F)F)cc1CN(Cc1cc(C(F)(F)F)cc(C(F)(F)F)c1)c1nnn(C)n1` [Example 58]: the IC50 on CETP [1] (setting [4]) amounted to 82.2 nM; at CETP [1] (setting [5]), 151 nM; at CETP [1] (setting [6]), 280 nM; at CETP [1] (setting [7]), 372 nM.

On to `CC[C@@H]1C[C@H](N(Cc2cc(C(F)(F)F)cc(C(F)(F)F)c2)c2ncc(-c3cnn(C)c3)cn2)C[C@H](CC)N1C(=O)O[C@H]1CC[C@H](C(=O)O)CC1` [Example 19], for which the IC50 on CETP [1] (setting [4]) stood at 71.9 nM; on CETP [1] (setting [5]), 116 nM; at CETP [1] (setting [7]), 540 nM.

As for `CCN(C[C@H]1CC[C@H](CC(=O)O)CC1)c1ccc(C(F)(F)F)cc1CN(c1ncc(OCCS(C)(=O)=O)cn1)[C@H](C)c1cc(C(F)(F)F)cc(C(F)(F)F)c1` [Example 57B], the IC50 stood at 669 nM at CETP [1] (setting [4]), 1300 nM at CETP [1] (setting [5]), 2300 nM on CETP [1] (setting [6]) and 2700 nM on CETP [1] (setting [7]).

As for `Cn1nnc(N(Cc2cc(C(F)(F)F)cc(C(F)(F)F)c2)Cc2cc3cc(F)c(F)cc3nc2N2CCC[C@@H]2[C@H]2CC[C@H](C(=O)O)CC2)n1` [Example 49], the IC50 at CETP [1] (setting [4]) is 22.1 nM; at CETP [1] (setting [5]), 42.7 nM; at CETP [1] (setting [6]) it was 37.1 nM; on CETP [1] (setting [7]) it was 46.4 nM. The “Inhibition of CETP activity, lower dose group, Triton WR-1339 group” value with CETP [2] (oral gavage: Torcetrapib 5 mg/kg, Anacetrapib 1.5 mg/kg, Example 49 1.5 mg/kg, Example 8 0.75 mg/kg, Triton WR-1339 100 mg/kg i.v., not significant vs vehicle) is given as 26%. Also, the “Inhibition of CETP activity, lower dose group, saline group” value in the assay on CETP [2] (oral gavage: Torcetrapib 5 mg/kg, Anacetrapib 1.5 mg/kg, Example 49 1.5 mg/kg, Example 8 0.75 mg/kg, saline i.v.) is reported as 63%. Also, the “Inhibition of CETP activity, higher dose group, Triton WR-1339 group” value in the assay with CETP [2] (oral gavage: Torcetrapib 10 mg/kg, Anacetrapib 3 mg/kg, Example 49 3 mg/kg, Example 8 1.5 mg/kg, Triton WR-1339 100 mg/kg i.v.) is given as 38%. Further, in the assay on CETP [2] (oral gavage: Torcetrapib 10 mg/kg, Anacetrapib 3 mg/kg, Example 49 3 mg/kg, Example 8 1.5 mg/kg, saline i.v.), the “Inhibition of CETP activity, higher dose group, saline group” value is 77%. Further, in the assay on CETP [3] (Triton WR-1339 group), the “Maximum inhibition of CETP activity, compound exogenously added, Triton WR-1339 group” value is given as approximately 100%. Besides, the “Maximum inhibition of CETP activity, compound exogenously added, saline group” value in the assay on CETP [3] (saline group) is recorded as approximately 100%.

On to `CCN(C[C@H]1CC[C@H](CC(=O)O)CC1)c1ccc(C(F)(F)F)cc1CN(c1ncc(OCCS(C)(=O)=O)cn1)[C@@H](C)c1cc(C(F)(F)F)cc(C(F)(F)F)c1` [Example 57A], for which the IC50 at CETP [1] (setting [4]) was 301 nM; on CETP [1] (setting [5]), 155 nM; on CETP [1] (setting [6]) it was 91.7 nM; on CETP [1] (setting [7]), 29.4 nM.

`Cc1cc(C)c2c(c1)[C@@H](N(Cc1cc(C(F)(F)F)cc(C(F)(F)F)c1)c1nnn(C)n1)CCCN2C[C@H]1CC[C@H](C(=O)O)CC1` [Example 53]: the IC50 on CETP [1] (setting [4]) was found to be 48.7 nM; on CETP [1] (setting [5]), 49.8 nM; on CETP [1] (setting [6]), 54.4 nM; on CETP [1] (setting [7]) it was 92.3 nM.

Take `CC[C@@H]1C[C@H](N(Cc2cc(C(F)(F)F)cc(C(F)(F)F)c2)c2ncc(-c3cnn(C)c3)cn2)C[C@H](CC)N1C(=O)O[C@H]1C[C@H](C(=O)O)C1` [Example 17]: the IC50 came out at 114 nM on CETP [1] (setting [4]), 62.7 nM on CETP [1] (setting [5]), 40.2 nM at CETP [1] (setting [6]) and 29.6 nM on CETP [1] (setting [7]).
